Reference: patent US9464113B2, “Anti-heparan sulfate peptides that block herpes simplex virus infection in vivo” (The Board of Trustees of the University of Illinois, priority 2010, dated 2016)
No end group written: not given here.

Tests used:
HSV-1 (KOS) gL86 = assay: HSV-1 entry into primary human corneal fibroblasts (CF); format: cell-based, herpes simplex virus type-1; settings: for blocking of HSV-1 entry/infection: human CF, 60 min pre-treatment, 25 pfu/cell, 6 hr
Protocol: HSV-1 entry was assayed as described in Shukla et al., Cell 99:13-22 (1999). CHO-K1 cells were grown in 6-well plates to subconfluence and then transfected with 2.5 μg of expression plasmids for gD receptors nectin-1 (pBG38), HVEM (pBec10), 3-OST-3 isoform (pDS43), or pCDNA3.1 (empty vector) using LipofectAMINE (Gibco/BRL). At 16 h post-transfection, the cells were replated into 96-well dishes for pre-incubation with peptides at different concentrations for 60 min at room temperature. In parallel, natural target cells (HeLa, CF, and RPE) were also pre-treated with the peptides for the same duration. In all cases, unbound peptides were removed after washing 3× with PBS. Thereafter, cells were infected for 6 h with a recombinant virus, HSV-1 (KOS) gL86, at multiple plaque forming units (PFUs) and β-galactosidase assays were performed using either a soluble substrate o-nitrophenyl-β-D-galactopyranoside (ONPG at 3.0 mg/ml; ImmunoPure, Pierce) or X-gal (Sigma). For the soluble substrate, the enzymatic activity was measured at 410 nm using a micro-plate reader (Spectra Max 190, Molecular Devices, Sunnyvale, Calif.). For the X-gal assay, cells were fixed (2% formaldehyde and 0.2% glutaraldehyde) and permeabilized (2 mM MgCl2, 0.01% deoxycholate, and 0.02% nonidet NP-40 (Sigma)). 1 ml of β-galactosidase reagent (1.0 mg/ml X-gal in ferricyanide buffer) was added to each well and incubated at 37° C. for 90 min before the cells were examined using bright field microscopy under the 20× objectives of the inverted microscope (Zeiss Axiovert 100 M).
The ability of the G1 and G2 peptides to block HSV-1 entry into natural target cells (HeLa and primary cultures of human CF) was compared. A similar dosage response curve was generated when HeLa (FIG. 2A) or CF (FIG. 2B) were pre-treated with G1 or G2 peptides during HSV-1 entry. […] HeLa cells (FIG. 2A) and primary cultures of human corneal fibroblasts (CF) (FIG. 2B) were tested. Cells in 96-well plates were pre-treated for 60 min with indicated mM concentrations of G1, G2, or Cp peptides. Mock-treated cells (abbreviated as C) served as a control. Pretreated cells were infected with a β galactosidase-expressing recombinant virus HSV-1 (KOS) HSV-1 gL86 (25 pfu/cell) for 6 hr. Viral entry was quantitated as described above in reference to FIG. 1. Confirmation of HSV-1 entry blocking activity of G1, G2, and control (Cp) peptides on a per cell basis was obtained after cells were infected as described above followed by X-gal (1.0 mg/ml) staining (Right panels), which yields an insoluble blue product upon hydrolysis by β-galactosidase expressed from the input viral genomes. […] Microscopy was performed using a 20× objective of Zeiss Axiovert 100.
To better understand the inhibitory potential of G1 and G2 peptides, synthetic short variants (10-mer) were synthesized that lacked the terminal non-positively charged amino acids. In case of G1, N-terminus L and C-terminus H residues were removed. For G2, the N-terminus flanking residues (M and P) were removed. Without being bound by theory, it is believed that 12-mer peptides are too short to adopt substantial secondary or tertiary structures and that the primary structure of those peptides, which includes a defined sequence or groupings of positively charged residues, plays a critical role in mediating inhibition of HSV-1 entry. Synthetic 10-mer versions of G1 and G2 (shown above) were tested for blocking HSV-1(KOS)gL86 entry into cultured CF. After 6 h, the viral entry was measured by ONPG assay as described in FIG. 1.
Alanine (A) scanning mutagenesis was performed to identify specific amino acid residues responsible for each peptide's function, stability, and conformation. O'Nuallain et al., Biochemistry 46:13049-13058 (2007). Twelve synthetic peptides were made whereby each residue of G2 was sequentially replaced with an alanine residue and corresponding changes in the G2 peptide were evaluated for their ability to affect viral entry (FIG. 4B). […]

HSV-1 (KOS) = assay: Mouse cornea model of HSV-1 infection (immunohistochemistry); format: in vivo, BALB/c mice
Protocol: BALB/c mice with pre-scarred corneal upper surface were treated with PBS-based eye drops containing 0.5 mM G1, G2, or control peptide followed by inoculation of HSV-1 (KOS). Mice were sacrificed after 4 and 7 days for HSV-1 detection. Immunohistochemistry was performed as described by Akhtar et al., Invest. Ophthalmol. Vis. Sci. 49:4026-4035 (2008). Briefly, tissue sections were hydrated with distilled water and antigen retrieval was performed using DAKO Target Retrieval Solution 10× concentrate (DAKO, Carpinteria, Calif.). Nonspecific staining was blocked using H2O2 solution for 10 minutes followed by a protein block for 10 minutes. Sections were incubated with HSV-1 gD specific antiserum (1:100 dilution) at room temperature for 1 hr followed by a 40-minute incubation with the secondary antibody (HRP-conjugated goat anti-rabbit IgG, 1:500; Sigma, St. Louis, Mo.). Expression of gD was detected using the DAKO Envision^+ kit. Confocal and differential interference contrast (DIC) image acquisition was conducted with an SB2-AOBS confocal microscope (Leica, Solms, Germany).
Immunohistochemistry was used to locate HSV-1 glycoprotein D (gD) expression in the cornea pre-treated with either a control peptide, G1 or G2 followed by HSV-1 infection. 100 μl of G1, G2, or Cp (control) peptide at 0.5 mM concentration was poured into the mouse cornea as a prophylactic “eye drop” followed by an infection with HSV-1 (KOS) at 10^6 PFU. At 4 or 7 days post infection, immunohistochemistry was performed using anti-HSV-1 gD polyclonal antibody.

[1] = 100 μl eye drop at 0.5 mM before 10^6 PFU, 4 and 7 days post infection

| Sequence | blocking of HSV-1 entry/infection (HSV-1 (KOS) gL86) | HSV-1 protein (gD) expression in cornea (HSV-1 (KOS); [1]) | state of corneal epithelium (HSV-1 (KOS); [1]) | activity normalized against wild-type G2 (higher than 1 = loss of activity) (HSV-1 (KOS) gL86; alanine scanning, FIG. 4B) | HSV-1 gD staining in cornea (HSV-1 (KOS); 0.5 mM eye drop, day 4) | corneal inflammation (HSV-1 (KOS); 0.5 mM eye drop, day 4) | HSV-1 staining in cornea (HSV-1 (KOS); 0.5 mM eye drop, day 7) | state of corneal epithelium (HSV-1 (KOS); 0.5 mM eye drop, day 7) |
| --- | --- | --- | --- | --- | --- | --- | --- | --- |
| LRSRTKIIRIRH [G1, LRSRTKIIRIRH] | effective in blocking infection of individual cells | virtually no HSV-1 protein expression was detected | epithelium remained intact |  |  |  |  |  |
| MPRRRRIRRRQK [G2, MPRRRRIRRRQK] | effective in blocking infection of individual cells | virtually no HSV-1 protein expression was detected | epithelium remained intact | 1.00 |  |  |  |  |
| RVCGSIGKEVLG [Cp, reference compound] | no effect on HSV-1 entry |  |  |  | significant staining for HSV-1 gD | severe chronic inflammation | gone | damage to the corneal epithelium was still evident |
